Laboratory results reported in patent publication US20100063302A1, “CYCLIC SULFONIUM SALT, METHOD FOR PRODUCTION OF CYCLIC SULFONIUM SALT, AND GLYCOSIDASE INHIBITOR” (Takano Co., Ltd., priority 2007, published 2010).
≈ marks a conversion by molar mass, not a printed value.

Key:
Type in all cases: biochemical
sucrase = target: T1, sucrase (Homo sapiens, UniProt P14410); test: α-glycosidase-inhibiting activity, sucrase (small intestinal brush border membrane vesicles); conditions: substrate sucrose (74 mM), 0.1 M maleic acid buffer pH 6.0, 37° C., 30 minutes, glucose-oxidase method
T1 construct: suspending small intestinal brush border membrane vesicles in 0.1 M maleic acid buffer (pH 6.0); from tissue; host or cells: small intestinal brush border membrane vesicles
T1 sequence (P14410 whole entry, species assumed): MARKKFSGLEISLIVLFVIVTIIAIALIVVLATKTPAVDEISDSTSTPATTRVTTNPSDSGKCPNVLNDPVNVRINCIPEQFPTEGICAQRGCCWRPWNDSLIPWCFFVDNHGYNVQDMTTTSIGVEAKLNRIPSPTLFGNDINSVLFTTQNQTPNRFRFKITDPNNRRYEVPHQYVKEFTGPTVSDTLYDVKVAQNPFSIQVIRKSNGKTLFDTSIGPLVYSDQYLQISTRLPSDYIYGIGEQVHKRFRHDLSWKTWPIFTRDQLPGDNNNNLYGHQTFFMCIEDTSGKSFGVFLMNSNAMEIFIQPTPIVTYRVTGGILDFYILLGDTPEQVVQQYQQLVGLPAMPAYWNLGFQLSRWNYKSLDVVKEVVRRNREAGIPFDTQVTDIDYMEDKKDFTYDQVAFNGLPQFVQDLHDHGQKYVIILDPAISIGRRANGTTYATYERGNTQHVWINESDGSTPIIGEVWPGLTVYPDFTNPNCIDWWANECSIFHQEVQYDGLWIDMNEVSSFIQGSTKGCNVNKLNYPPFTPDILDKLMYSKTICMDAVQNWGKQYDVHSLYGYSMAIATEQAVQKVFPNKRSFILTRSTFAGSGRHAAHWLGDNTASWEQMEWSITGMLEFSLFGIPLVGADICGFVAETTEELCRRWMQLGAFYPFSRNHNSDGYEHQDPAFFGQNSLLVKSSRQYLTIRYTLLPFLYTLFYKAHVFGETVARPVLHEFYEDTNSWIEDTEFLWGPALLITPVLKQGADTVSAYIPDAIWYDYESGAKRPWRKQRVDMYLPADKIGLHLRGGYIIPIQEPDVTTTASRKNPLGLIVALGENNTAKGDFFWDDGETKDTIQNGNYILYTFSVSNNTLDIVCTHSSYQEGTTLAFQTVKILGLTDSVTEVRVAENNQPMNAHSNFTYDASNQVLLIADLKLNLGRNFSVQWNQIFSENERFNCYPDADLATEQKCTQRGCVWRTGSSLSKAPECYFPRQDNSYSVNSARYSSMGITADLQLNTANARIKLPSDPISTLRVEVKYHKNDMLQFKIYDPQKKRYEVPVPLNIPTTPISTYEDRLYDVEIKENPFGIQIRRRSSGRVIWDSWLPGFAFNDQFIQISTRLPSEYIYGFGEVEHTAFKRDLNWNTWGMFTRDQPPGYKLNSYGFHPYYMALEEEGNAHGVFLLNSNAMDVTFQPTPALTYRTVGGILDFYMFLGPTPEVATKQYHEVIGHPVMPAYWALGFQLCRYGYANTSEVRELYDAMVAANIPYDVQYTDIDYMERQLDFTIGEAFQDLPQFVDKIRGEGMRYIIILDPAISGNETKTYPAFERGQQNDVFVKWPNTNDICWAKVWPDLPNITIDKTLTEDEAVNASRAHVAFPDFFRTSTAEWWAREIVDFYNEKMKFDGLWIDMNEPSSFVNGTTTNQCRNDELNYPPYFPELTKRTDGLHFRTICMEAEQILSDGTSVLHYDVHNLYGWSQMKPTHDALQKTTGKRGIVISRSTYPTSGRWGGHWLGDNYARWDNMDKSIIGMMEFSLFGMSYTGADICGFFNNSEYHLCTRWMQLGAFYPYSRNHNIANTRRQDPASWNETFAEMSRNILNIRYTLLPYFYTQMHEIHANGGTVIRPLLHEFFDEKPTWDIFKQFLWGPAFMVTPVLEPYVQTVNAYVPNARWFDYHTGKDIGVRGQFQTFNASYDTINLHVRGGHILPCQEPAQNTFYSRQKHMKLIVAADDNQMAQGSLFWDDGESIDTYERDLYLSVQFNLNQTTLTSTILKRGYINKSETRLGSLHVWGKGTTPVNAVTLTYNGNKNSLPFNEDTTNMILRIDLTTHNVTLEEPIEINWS
Method: (§1) The compounds (6a), (6b), (6c) and (6d), each prepared by Example 25, as well as the compound (6g) prepared by Example 27 were each measured for α-glycosidase-inhibiting activity. […] To each of sucrose (74 mM), maltose (74 mM) and isomaltose (74 mM) solution as a substrate, there was added a solution (0.05 ml) of a test compound in various concentrations, and the resulting mixture was pre-heated at 37° C. for 2 to 3 minutes, followed by addition of an enzyme solution and reaction for 30 minutes. Thereafter, water was added and the resulting mixture was heated in a boiling water bath for 2 minutes in order to inactivate the enzyme. Separately, the enzyme solution was added to each of the test solutions and immediately thereafter heated in boiling water bath for 2 minutes to inactivate the enzyme. This solution was used as a blank. The amount of […] D-glucose was measured in accordance with glucose-oxidase method. The substrate and test compounds were used in a solution of 0.1 M maleic acid buffer (pH 6.0). A 50% inhibitory concentration (IC50) was calculated from the value observed.

maltase = test: α-glycosidase-inhibiting activity, maltase (small intestinal brush border membrane vesicles); conditions: substrate maltose (74 mM), 0.1 M maleic acid buffer pH 6.0, 37° C., 30 minutes, glucose-oxidase method
Method: as §1

isomaltase = target: T2, isomaltase (Homo sapiens, UniProt P14410); test: α-glycosidase-inhibiting activity, isomaltase (small intestinal brush border membrane vesicles); conditions: substrate isomaltose (74 mM), 0.1 M maleic acid buffer pH 6.0, 37° C., 30 minutes, glucose-oxidase method
T2 construct: suspending small intestinal brush border membrane vesicles in 0.1 M maleic acid buffer (pH 6.0); from tissue; host or cells: small intestinal brush border membrane vesicles
T2 sequence (P14410 whole entry, species assumed): as above
Method: as §1

Row | Structure (SMILES) | IC50 (sucrase) [µM] | IC50, maltase (maltase) [µg/mL] | IC50 (isomaltase) [µM]
1 | O=S(=O)([O-])OC(C(O)C[S+]1CC(O)C(O)C1CO)C(O)C(O)C(O)CO (single isomer, unassigned) [Compound (6a)] | 66.9 | 20.6 (≈ 48.5 µM) | 1.63
2 | O=S(=O)([O-])OC(C(O)C[S+]1CC(O)C(O)C1CO)C(O)C(O)C(O)CO (single isomer, unassigned) [Compound (6b)] | 136 | >100 | 10.8
3 | O=S(=O)([O-])OC(C(O)C[S+]1CC(O)C(O)C1CO)C(O)C(O)C(O)CO (single isomer, unassigned) [Compound (6d)] | 32.3 | 24.8 (≈ 58.4 µM) | 6.53
4 | O=S(=O)([O-])OC(C(O)C[S+]1CC(O)C(O)C1CO)C(O)C(O)C(O)CO (single isomer, unassigned) [Compound (6g)] | > 236 | >100 | 158
5 | O=S(=O)([O-])OC(C(O)C[S+]1CC(O)C(O)C1CO)C(O)C(O)C(O)CO (single isomer, unassigned) [kotalanol, reference compound] | 0.754 | 3.07 (≈ 7.23 µM) | 5.68
6 | O=S(=O)([O-])OC(C(O)C[S+]1CC(O)C(O)C1CO)C(O)C(O)C(O)CO (stereo not drawn) [Compound (6c)] | 214 | >100 | 16.2
